Consider one compound from US20050209339A1, “Methods for the treatment of sinusitis” (priority 2002, published 2005).

One assay concerns chronic rhinosinusitis. Briefly: double-blind placebo-controlled clinical trial in chronic rhinosinusitis. The format is in vivo, human. The conditions noted are these: 625 mg terbinafine base equivalent as hydrochloride orally once daily for 6 weeks, versus placebo, patients. As for the experimental part: A prospective, double-blind, parallel-group, multi-center, placebo-controlled study comparing the safety and efficacy of 625 mg of terbinafine base equivalent as hydrochloride daily, or a molar equivalent in other acid addition salt or free base form, for 6 weeks, versus placebo in the treatment of chronic rhinosinusitis is performed. The study duration is a total of 18 weeks and consists of three periods: a) screening (3 weeks, from week −3 to −1); b) treatment (6 weeks, from baseline of treatment week to week +6); and c) follow-up assessment (9 weeks, from week +7 to +15).
Sixty patients, male and female, between the age of 18 and 65 years, are randomized to receive six weeks of terbinafine therapy or placebo.
Additional inclusion criteria for admission to the study is as follows: • Patients with signs and symptoms of chronic non-invasive rhinosinusitis (CRS) for at least 3 months prior to screening. […]

Assay [1] has as its system molds and dimorphic fungi, pathogenic yeasts of the genera Pityrosporum, Candida and Rhodotorula. The settings on record: many pathogenic yeasts (Pityrosporum, Candida, Rhodotorula); cited from earlier work.
Assay [2] relates to ergosterol biosynthesis (squalene epoxidase). The settings on record: blocks squalene epoxidase; cited from earlier work.

In the case of `CN(C/C=C/C#CC(C)(C)C)Cc1cccc2ccccc12` [Terbinafine], the “efficacy relative to primary (CT total opacification score) and secondary variables” value in the assay with chronic rhinosinusitis was “therapeutically effective regimen”. Moreover, the activity in vitro result in assay [1] is “active in vitro”. The “inhibition of ergosterol biosynthesis” value in assay [2] was “potent inhibitor”.
